Results on one compound are retold here after patent US9522928B2, “Mannosylated compounds useful for the prevention and the treatment of infectious diseases” (UNIVERSITE DE STRASBOURG, priority 2011, dated 2016).

In one data set the target is T1, DC-SIGN (Homo sapiens, UniProt Q9NNX6).
T1 construct: endogenous in cells; host or cells: human monocyte-derived dendritic cells (GM-CSF/IL-4 differentiated)
T1 sequence (Q9NNX6 1-404): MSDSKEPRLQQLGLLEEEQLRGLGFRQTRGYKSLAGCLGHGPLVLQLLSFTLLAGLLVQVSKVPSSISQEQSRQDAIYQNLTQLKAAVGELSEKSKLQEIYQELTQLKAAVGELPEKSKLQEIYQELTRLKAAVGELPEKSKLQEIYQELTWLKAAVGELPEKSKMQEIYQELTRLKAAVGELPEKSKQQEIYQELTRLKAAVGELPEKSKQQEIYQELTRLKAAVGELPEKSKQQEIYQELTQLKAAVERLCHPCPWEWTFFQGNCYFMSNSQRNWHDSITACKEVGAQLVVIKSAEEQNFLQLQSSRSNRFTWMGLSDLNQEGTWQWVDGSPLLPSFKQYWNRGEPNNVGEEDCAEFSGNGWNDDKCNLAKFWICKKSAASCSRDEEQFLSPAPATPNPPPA
The data set is described as follows: DC-SIGN internalization in DCs (flow cytometry, confocal microscopy). Type of data set: cell-based. The note with it: 100 μM. How it is done:
To visualize the effect on DC-SIGN, cells were either left untreated or exposed to TriMan (100 μM final) for 45 min at 37° C., fixed with 4% paraformaldehyde for 15 min at room temperature, washed, permeabilized with 0.1% Triton X-100 for 3 min at 20° C., washed and labeled with an anti-DC-SIGN primary monoclonal antibody clone 111H2 (Canard, et al., 2011), followed by a secondary FITC-labeled anti-mouse-IgG (Southern Biotech). Nuclei were labeled with DAPI. Slides were mounted and processed as above.
Moreover, expression of DC-SIGN was visualized with a fluorescently-labeled antibody by confocal fluorescence microscopy. In untreated cells, DC-SIGN was mostly located at the cell membrane, in agreement with previous reports (Engering, et al., 2002). Upon exposure to TriManC24, DC-SIGN was detected both at the cell membrane and within the cytoplasm. […] The effect of TriManC24 on DC-SIGN cellular localization was assessed by flow cytometry analyses of DCs, in the absence or presence of TriManC24.
For orientation: A flow cytometer gives signals particle by particle.

Another data set deals with DCs. As to the kind of experiment: Confocal microscopy of Alexa633-labeled TriManC24 in DCs. Type of data set: cell-based, human. The note with it: Alexa Fluor 633 labeled compound, 100 μM, 10 min at 37° C. How it is done:
Human DCs (1×10^5 in 100 μl of RPMI medium) were exposed to Alexa633-labeled TriManC24 (100 μM final) for 10 min at 37° C. When indicated, transferrin-Alexa488 (Invitrogen) was also added for 10 min at 37° C. Cells were then washed and fixed with 4% paraformaldehyde for 15 min at room temperature. Nuclei were labeled with DAPI (1 μg/ml final) for 5 min. Slides were mounted using Prolong-Antifade (Molecular Probes). Samples were imaged with a confocal microscope (Zeiss LSM 700) and images analyzed with Adobe Photoshop.
To gain further insight into the interactions of TriManC24 with DC-SIGN expressed by DCs, a fluorescence-labeled TriManC24 was prepared by connecting Alexa Fluor 633 to hydroxyl groups of the mannose units. DCs were exposed to the labeled TriManC24 and visualized by confocal fluorescence microscopy.

Data set [1] is described as follows: Hydrodynamic diameter of micelles (Zetasizer Nano ZS). It is filed as physicochemical. Particulars: in water at 0.5 mg/ml. How it is done: DiManinsatC24 was prepared according a procedure similar to that used for the preparation of TriDiManC24 except that: • pentacosanoic acid was replaced by 10,12-pentacosadiynoic acid, and • before the coupling with 10,12-pentacosadiynoic acid, the benzyl groups of compound 33 were replaced by acetyl group so as to provide compound 108 (as illustrated in FIG. 3E). ^1H NMR δ(ppm) (MeOD, 400 MHz) 4.87 (s, 3H), 4.73 (s, 3H), 3.64-3.50 (m, 14H), 3.46-3.20 (m, 76H), 2.97-2.93 (m, 6H), 2.33 (t, 6H, J=6.8 Hz), 2.09-1.96 (m, 6H), 1.08-1.05 (m, 32H), 0.66 (t, 3H, J=6.8 Hz). ^13C NMR δ (ppm) (MeOD, 100 MHz) 173.7, 168.8, 104.2, 101.2, 80.6, 80.4, 75.1, 74.7, 72.5, 72.2, 72.1, 71.9, 71.8, 71.7, 71.6, 71.4, 69.4, 69.1, 68.9, 68.7, 68.6, 68.0, 63.2, 63.1, 42.2, 37.0, 34.8, 33.7, 33.1, 30.8, 30.7, 30.6, 30.5, 30.4, 30.2, 29.5, 28.1, 27.0, 26.0, 23.7, 19.7, 14.4. IR (neat film, cm^−1): 3353, 2924, 1716, 1636, 1350, 1182, 1095, 1035, 1009, 837, 669. • Determination of critical micelle concentrations (CMCs) and size of particles. The hydrodynamic diameters of micelles of glycolipids were measured in water using a Zetasizer Nano ZS system (Malvern Instruments). The CMCs were measured using pyrene as an extrinsic fluorescent probe and were carried out as described (Perino et al., 2011). Briefly, a range of glycolipid samples were dissolved in water (1 ml), with concentrations ranging from 1.0 to 0.001 mg/ml. A stock solution of pyrene (1 mM) was prepared in dimethyl sulfoxyde and was added to each sample. Fluorescent emission of pyrene was measured at 25° C. using a Fluorolog spectrofluorometer (Jobin Yvon, Horiba). The intensities of fluorescence emission were determined at 374 nm (I374) and at 383 nm (I383), with an excitation at a 339 nm wavelength. The ratios I374/I383 were calculated and plotted against the glycolipid concentration. The CMC value was determined at the intersection of the two straight lines.

Regarding `CCCCCCCCCCCCCCCCCCCCCCCCC(=O)NC(COCCC(=O)NCCOCCOCCOCCOC1OC(CO)C(O)C(O)C1O)(COCCC(=O)NCCOCCOCCOCCOC1OC(CO)C(O)C(O)C1O)COCCC(=O)NCCOCCOCCOCCOC1OC(CO)C(O)C(O)C1O` (stereo not drawn) [TriManC24], on DC-SIGN, the DC-SIGN receptors internalized result was “about 20%”. Further, the “cell binding and internalization (in words)” value in the data set with DCs was “binds to the cell membrane and can be internalized by DCs via clathrin -mediated endocytosis”. The “hydrodynamic diameter of micelles” value in data set [1] amounted to 39 nm.
